# The source made the active and inactive calls. The rule behind the calls is not given here.
# Key:
# [1] = tested on: Mitochondrial membrane; assay: Disruption of mitochondrial potential loss in human MDA-MB-231 cells assessed as increase in JC-1 monomers at 1 uM incubated for 24 hrs by JC-1 staining based flow cytometric analysis (Rvb =1.68%); assay type: cell membranes
# [2] = tested on: BT-549; assay: Induction of apoptosis in human BT-549 cells assessed as early apoptotic cells at 1 uM incubated for 24 hrs by Annexin V-PI staining based flow cytometric analysis (reference value: 0.78%); assay type: functional
# [3] = Toxicity in female BALB/c mouse assessed as change in liver administered subcutaneously measured upto 16 days; assay type: tissue-based; conditions: in vivo, sc, 384 h, time < 16 day
# [4] = tested on: MDA-MB-231; assay: Induction of apoptosis in human MDA-MB-231 cells assessed as viable cells at 1 uM incubated for 24 hrs by Annexin V-PI staining based flow cytometric analysis (reference value: 96.5%); assay type: functional; conditions: read-out: Activity
# [5] = tested on: BT-549; assay: Antiproliferative activity against human BT-549 cells xenografted in female BALB/c mouse model assessed as fold change in inhibition of PKM2 expression at 5 mg/kg administered subcutaneously incubated for 24 hrs by Western blot analysis (reference value: 1.05%); assay type: functional; conditions: route sc
# [6] = tested on: MDA-MB-231; assay: Inhibition of cell migration in human MDA-MB-231 cells assessed as decrease in SNAIL level at 1 uM incubated for 24 hrs by DAPI staining based immunofluorescence analysis; assay type: functional
# [7] = tested on: MDA-MB-231; assay: Inhibition of cell migration in human MDA-MB-231 cells assessed as increase in E-cadherin level incubated for 24 hrs by Western blot analysis; assay type: functional, cell-based; conditions: dose 0.5-2 µM
# [8] = tested on: BT-549; assay: Antitumor activity against human BT-549 cells xenografted in female BALB/c mouse model assessed as reduction of proliferation rate of tumor at 5 to 20 mg/kg administered subcutaneously and measured every day; assay type: functional, organism-based; conditions: dose 5-20 mg/kg, route sc
# [9] = tested on: BT-549; assay: Induction of ER stress in human BT-549 cells assessed as activation of Xbp-1s protein level incubated for 24 hrs by Western blot analysis; assay type: functional, cell-based; conditions: dose 0.5-2 µM
# [10] = tested on: MDA-MB-231; assay: Antiproliferative activity against human MDA-MB-231 cells xenografted in female BALB/c mouse model assessed as fold change in upregulation of BAX protein level at 5 mg/kg administered subcutaneously incubated for 24 hrs by Western blot analysis (reference value: 1.00%); assay type: functional; conditions: route sc
# [11] = Toxicity in female BALB/c mouse assessed as change in heart administered subcutaneously measured upto 16 days; assay type: tissue-based; conditions: in vivo, sc, 384 h, time < 16 day
# [12] = tested on: BT-549; assay: Induction of apoptosis in human BT-549 cells assessed as early apoptotic cells at 2 uM incubated for 24 hrs by Annexin V-PI staining based flow cytometric analysis (reference value: 0.78%); assay type: functional
# [13] = tested on: BT-549; assay: Antiproliferative activity against human BT-549 cells xenografted in female BALB/c mouse model assessed as fold change in upregulation of BAX protein level at 20 mg/kg administered subcutaneously incubated for 24 hrs by Western blot analysis (reference value: 1.00%); assay type: functional; conditions: route sc
# [14] = tested on: BT-549; assay: Induction of ER stress in human BT-549 cells assessed as upregulation of BIP protein level at 1 uM incubated for 24 hrs by DAPI staining based immunofluorescence analysis; assay type: functional, cell-based
# [15] = tested on: MDA-MB-231; assay: Induction of apoptosis in human MDA-MB-231 cells assessed as early apoptotic cells at 1 uM incubated for 24 hrs by Annexin V-PI staining based flow cytometric analysis (reference value: 0.42%); assay type: functional
# [16] = tested on: BT-549; assay: Inhibition of cell migration in human BT-549 cells assessed as decrease in SNAIL level at 1 uM incubated for 24 hrs by DAPI staining based immunofluorescence analysis; assay type: functional
# [17] = tested on: BT-549; assay: Induction of apoptosis in human BT-549 cells assessed as viable cells at 0.5 uM incubated for 24 hrs by Annexin V-PI staining based flow cytometric analysis (reference value: 93.0%); assay type: functional; conditions: read-out: Activity
# [18] = tested on: MDA-MB-231; assay: Induction of apoptosis in human MDA-MB-231 cells assessed as upregulation of cleavage of caspase-8 expression at 0.5 to 2 uM incubated for 24 hrs by Western blot analysis; assay type: functional, cell-based; conditions: dose 0.5-2 µM
# [19] = tested on: Mitochondrial membrane; assay: Disruption of mitochondrial potential loss in human BT-549 cells assessed as increase in JC-1 monomers at 1 uM incubated for 24 hrs by JC-1 staining based flow cytometric analysis (Rvb =1.07%); assay type: cell membranes
# [20] = tested on: MDA-MB-231; assay: Inhibition of DNA replication in human MDA-MB-231 cells assessed as reduction in EDU fluorescence intensity by EDU staining based fluorescence microscopic analysis; assay type: functional, cell-based; conditions: dose 0.5-2 µM
# [21] = tested on: MDA-MB-231; assay: Inhibition of tumor sphere formation in human MDA-MB-231 cells at 1 uM incubated for 24 hrs by microscopic analysis; assay type: functional, cell-based
# [22] = Toxicity in female BALB/c mouse xenografted with human MDA-MB-231 cells assessed as effect on pathological changes in heart at 5 to 20 mg/kg, sc by H and E staining based analysis; assay type: organism-based; conditions: in vivo, dose 5-20 mg/kg
# [23] = Toxicity in female BALB/c mouse xenografted with human BT-549 cells assessed as effect on pathological changes in lung at 5 to 20 mg/kg, sc by H and E staining based analysis; assay type: organism-based; conditions: in vivo, dose 5-20 mg/kg
# [24] = Toxicity in female BALB/c mouse xenografted with human MDA-MB-231 cells assessed as effect on pathological changes in kidney at 5 to 20 mg/kg, sc by H and E staining based analysis; assay type: organism-based; conditions: in vivo, dose 5-20 mg/kg
# [25] = Toxicity in female BALB/c mouse xenografted with human BT-549 cells assessed as effect on pathological changes in liver at 5 to 20 mg/kg, sc by H and E staining based analysis; assay type: organism-based; conditions: in vivo, dose 5-20 mg/kg
# [26] = tested on: BT-549; assay: Induction of apoptosis in human BT-549 cells assessed as upregulation of cleavage of caspase-9 expression at 0.5 to 2 uM incubated for 24 hrs by Western blot analysis; assay type: functional, cell-based; conditions: dose 0.5-2 µM
# [27] = Toxicity in female BALB/c mouse assessed as change in kidney administered subcutaneously measured upto 16 days; assay type: tissue-based; conditions: in vivo, sc, 384 h, time < 16 day
# [28] = tested on: MDA-MB-231; assay: Induction of ER stress in human MDA-MB-231 cells assessed as activation of BIP protein level incubated for 24 hrs by Western blot analysis; assay type: functional, cell-based; conditions: dose 0.5-2 µM
# [29] = tested on: BT-549; assay: Induction of apoptosis in human BT-549 cells assessed as upregulation of cleavage of caspase-3 expression at 0.5 to 2 uM incubated for 24 hrs by Western blot analysis; assay type: functional, cell-based; conditions: dose 0.5-2 µM
# [30] = tested on: BT-549; assay: Antiproliferative activity against human BT-549 cells xenografted in female BALB/c mouse model assessed as fold change in inhibition of PKM2 expression at 10 mg/kg administered subcutaneously incubated for 24 hrs by Western blot analysis (reference value: 1.05%); assay type: functional; conditions: route sc
# [31] = tested on: BT-549; assay: Inhibition of glycolysis in human BT-549 cells assessed as decrease in LDHA protein level at 0.5 to 2 uM incubated for 24 hrs by Western blot analysis; assay type: functional, cell-based; conditions: dose 0.5-2 µM
# [32] = tested on: MDA-MB-231; assay: Antiproliferative activity against human MDA-MB-231 cells xenografted in female BALB/c mouse model assessed as fold change in inhibition of PKM2 expression at 10 mg/kg administered subcutaneously incubated for 24 hrs by Western blot analysis (reference value: 1.00%); assay type: functional; conditions: route sc
# [33] = tested on: MDA-MB-231; assay: Induction of apoptosis in human MDA-MB-231 cells assessed as late apoptotic cells at 0.5 uM incubated for 24 hrs by Annexin V-PI staining based flow cytometric analysis (reference value: 1.83%); assay type: functional
# [34] = tested on: BT-549; assay: Inhibition of glycolysis in human BT-549 cells assessed as reduction in lactate production at 0.5 to 2 uM; assay type: functional, cell-based; conditions: dose 0.5-2 µM
compound,measurement,setting,value
CC(C)=CCC/C(C)=C/[C@H]1OC(=O)CC12C[C@H](OC(=O)Cc1ccc(NC(=O)/C=C/c3ccccc3)cc1)C=CC2=O (some centres undefined),Activity,[1],42.6%
same,Activity,[2],3.62%
same,Activity,[3],Non-Toxic
same,viability at 1 µM,[4],42%
same,fold change (FC),[5],0.97
same,inhibition,[6],Active
same,inhibition,[7],Dose-Dependent Effect
same,Activity,[8],Active
same,Activity,[9],Active
same,fold change (FC),[10],1.05
same,Activity,[11],Non-Toxic
same,Activity,[12],11.1%
same,fold change (FC),[13],2.21
same,Activity,[14],Active
same,Activity,[15],0.97%
same,inhibition,[16],Active
same,viability at 0.5 µM,[17],91.7%
same,Activity,[18],Active
same,Activity,[19],56.3%
same,inhibition,[20],Dose-Dependent Effect
same,inhibition,[21],Active
same,Activity,[22],Non-Toxic
same,Activity,[23],Non-Toxic
same,Activity,[24],Non-Toxic
same,Activity,[25],Non-Toxic
same,Activity,[26],Active
same,Activity,[27],Non-Toxic
same,Activity,[28],Dose-Dependent Effect
same,Activity,[29],Active
same,fold change (FC),[30],0.76
same,inhibition,[31],Active
same,fold change (FC),[32],0.62
same,Activity,[33],16.4%
same,inhibition,[34],Active
